One experiment has as its system HKH-2 cells. Kind of experiment: alamarBlue cell viability assay, HKH-2. It is filed as cell-based. The following applies: Homo sapiens, 72 h, mutated KRas disrupted, read-out: HKH-2 IC50 ± SEM. The text has this:
(§1) Cell viability and proliferation assays were used to evaluate the in vitro cytotoxicity of all synthesised compounds in a variety of different cancer cell lines using the alamarBlue® viability assay and the results are presented in Table 1 and Table 2. The sensitivity of cancer cells to drugs can often be compromised by PIK3CA, Ras and BRAF mutations. To determine whether such mutations are critical to the efficacy of our new compounds we tested them in a range of cancerous cell lines expressing different mutations. Firstly, we used the HL-60 (human promyelocytic leukaemia, NRas mutated) cell line for general cytotoxicity screening of all compounds. […] Lastly, toxicity against MCF-10A, which is a non-tumorigenic epithelial cell line, was also assessed for one of the most promising compounds (4). The graphs representing the viability results with the HL-60, MCF-7, HeLa, HCT-116, and HKH-2 cancer cell lines for compound 1 and derivatives 2, 3, and 4 are shown in Figures S7–S10 (ESI).
(§2) Cells were counted and seeded in 96-well plates at a density of 2 × 10^5 cells/mL for HL-60, 2.5 × 10^4 cells/mL for MCF-7, MCF10A and HeLa, 1 × 10^5 cells/mL for HCT116 and HKH-2, all of them in their respective media. The 96-well plates were then treated with a 1:100 dilution of stock concentrations of drugs or EtOH (1% v/v)/DMSO (0.1% v/v) as vehicle control in triplicate. Three blank wells containing 200 µL RPMI with no cells were also set-up as blanks. After a 72 h incubation, 20 µL of alamarBlue was added to each well. The plates were incubated in darkness at 37 °C for 4–5 h using a Molecular Devices microplate reader, the fluorescence (F) was then read at an excitation wavelength of 544 nm and an emission wavelength of 590 nm. Cell viability was then determined by subtracting the mean blank fluorescence (Fb) from the treated sample fluorescence (Fs) and expressing this as a percentage of the fluorescence of the blanked vehicle control (Fc). […] The results were then plotted as a nonlinear regression, sigmoidal dose-response curves on Prism, from which the IC50 value for each drug was determined.
(§3) The MCF-7 (human breast tumour) cell line was obtained from Prof. Mary Meegan, School of Pharmacy, TCD. It was maintained in Roswell Park Memorial Institute (RPMI) 1640 medium with stable glutamate (GlutaMax I) supplemented with 10% (v/v) fetal bovine serum (FBS), 1% (v/v) penicillin/ streptomycin (pen-strep) and 2 mM L-glutamine.
(§4) The HeLa (human epitheloid cervix carcinoma) cell line was obtained from Prof. Thorfinnur Gunnlaugsson, School of Chemistry TCD. It was maintainedin Dulbecco's Modified Eagle's Medium (DMEM) supplemented with 10% (v/v) fetal bovine serum (FBS) and 1%(v/v) penicillin/ streptomycin (pen-strep).
(§5) The HCT116and HKH-2 (human colon cancer cells) cell lines were obtained from Prof. James Murray, School of Biochemistry and Immunology TCD. They were maintainedin Dulbecco's Modified Eagle's Medium (DMEM) supplemented with 10% (v/v) fetal bovine serum (FBS), 1% (v/v) penicillin/ streptomycin (pen-strep), 1% (v/v) sodium pyruvate (NaPyr), 1% (v/v) L-glutamine (L-Glu) and, only for HKH-2, 0.6 mg/mL geneticine (G418).
(§6) MCF-10A (human breast epithelial) cell line was obtained from Prof. Mary Meegan, School of Pharmacy, TCD. […]
(§7) Cells were counted and seeded in 96 well plates at a density of 2 × 10^5 cells/mL for HL-60, 2.5× 10^4 cells/mL for MCF-7, MCF10A and HeLa, 1 × 10^5 cells/mL for HCT116 and HKH-2, all of them in their respective media. […]
(Resazurin is reduced to fluorescent resorufin, in cell work by metabolically active cells.)

For another experiment, the system named is HeLa cells. Kind of experiment: alamarBlue cell viability assay, HeLa. Format: cell-based. The conditions noted are these: Homo sapiens, 72 h, read-out: HeLa IC50 ± SEM.
Description: as §1, §2, §3, §4, §5, §6, §7

Regarding `Cl.Cl.N=C(N)Nc1ccc(Oc2cccc(NC(=N)Nc3ccc(Cl)c(C(F)(F)F)c3)c2)cn1` [Compound 2, 1-(4-Chloro-3-(trifluoromethyl)phenyl)-3-(3-((6-guanidinopyridin-3-yl)oxy)phenyl) guanidine dihydrochloride], the half-maximal inhibitory concentration (IC50) – broadly, the point on the concentration scale where inhibition reaches its midpoint – with HKH-2 cells was determined as 8.09 ± 0.78 µM; in the experiment with HeLa cells it was 4.87 ± 0.27 µM.

On to `Cl.N=C(N)Nc1ccc(Oc2cccc(Nc3ccc(Cl)c(C(F)(F)F)c3)c2)cc1` [Compound 3, 1-(4-(3-((4-Chloro-3-(trifluoromethyl)phenyl)amino)phenoxy)phenyl)guanidine hydrochloride], for which the values for the IC50 in the experiment with HKH-2 cells and in the experiment on HeLa cells were 10.3 ± 0.74 µM and 4.33 ± 0.54 µM, respectively.

With `Cl.N=C(N)Nc1ccc(Oc2cccc(Nc3ccc(Cl)c(C(F)(F)F)c3)c2)cn1` [Compound 4, 1-(5-(3-((4-Chloro-3-(trifluoromethyl)phenyl)amino)phenoxy)pyridin-2-yl)guanidine hydrochloride], the results for the IC50 in the experiment with HKH-2 cells and with HeLa cells were 2.88 ± 0.15 µM and 1.33 ± 0.08 µM, respectively.

(Values after article PMC7767381, “Exploring the Anti-Cancer Mechanism of Novel 3,4′-Substituted Diaryl Guanidinium Derivatives” (Pharmaceuticals, 2020).)
